The experiment deals with T1, Myeloperoxidase (Homo sapiens, UniProt P05164).
T1 sequence (P05164 whole entry): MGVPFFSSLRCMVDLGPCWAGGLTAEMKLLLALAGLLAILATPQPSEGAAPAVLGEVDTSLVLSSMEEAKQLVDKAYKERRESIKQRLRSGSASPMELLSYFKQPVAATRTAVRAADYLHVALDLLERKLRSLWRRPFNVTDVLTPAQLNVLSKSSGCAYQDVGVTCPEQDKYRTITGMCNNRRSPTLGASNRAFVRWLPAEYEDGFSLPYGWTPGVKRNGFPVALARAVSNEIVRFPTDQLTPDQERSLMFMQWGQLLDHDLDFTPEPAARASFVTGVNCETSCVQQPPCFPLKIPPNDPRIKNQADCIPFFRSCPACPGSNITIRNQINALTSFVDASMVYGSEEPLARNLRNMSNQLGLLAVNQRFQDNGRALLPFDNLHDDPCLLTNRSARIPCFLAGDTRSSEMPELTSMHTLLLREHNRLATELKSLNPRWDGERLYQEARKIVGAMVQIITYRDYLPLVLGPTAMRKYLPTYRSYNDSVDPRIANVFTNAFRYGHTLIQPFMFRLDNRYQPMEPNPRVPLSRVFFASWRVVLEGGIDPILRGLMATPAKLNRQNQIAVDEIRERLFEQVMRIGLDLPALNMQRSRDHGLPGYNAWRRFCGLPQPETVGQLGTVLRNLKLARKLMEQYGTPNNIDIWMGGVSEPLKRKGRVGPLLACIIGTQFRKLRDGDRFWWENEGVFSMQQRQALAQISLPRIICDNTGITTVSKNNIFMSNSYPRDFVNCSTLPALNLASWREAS
As to the kind of experiment: Activity Assay. The settings on record: pH 7.4; 21 °C. The procedure:
The chlorination activity of MPO was determined by measuring the production of hypocholorous acid.
`O=c1[nH]c(=S)n(CC2CCCO2)c2nc[nH]c12` (centres undefined) [2-Thioxanthine, TX3] had a half-inhibitory concentration (IC50) of 0.4 µM.
As for `CC(C)Cn1c(=S)[nH]c(=O)c2[nH]cnc21` [2-Thioxanthine, TX1], the figure is 1 µM; as for `O=c1[nH]c(=S)n(C[C@H]2CCCO2)c2nc[nH]c12` [2-Thioxanthine, TX4], 0.2 µM; as for `COCCn1c(=S)[nH]c(=O)c2[nH]cnc21` [2-Thioxanthine, TX5], 0.4 µM.

Values taken from BindingDB's records for doi:10.1074/jbc.M111.266981 (AstraZeneca, 2011).
